# Where “and” joins values, the source holds several entries; their conditions need not be identical. Identical values can stand only once.
# System: BDF1 mice, Adenocarcinoma 755 s.c., tumor weight T/C
# Experiment: NCI In Vivo Anticancer Drug Screen. Data for tumor model Adenocarcinoma 755 (subcutaneous) in B6D2F1 (BDF1) mice
# Conditions: endpoint: mean tumor weight, higher = larger tumour
# Outline: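 Values express treated (T) relative to vehicle-dosed control (C) animals, based on survival or tumour size measured after compound treatment of mice bearing a transplanted tumour.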
# [1] = dose: 3.5 mg/kg/injection, schedule: Q01DX011 (ip), vehicle: methylcellulose (MC)
# [2] = dose: 7.0 mg/kg/injection, schedule: Q01DX011 (ip), vehicle: carboxymethylcellulose (CMC)
# [3] = dose: 7.0 mg/kg/injection, schedule: Q01DX011 (ip), vehicle: methylcellulose (MC)
# [4] = dose: 14.0 mg/kg/injection, schedule: Q01DX011 (ip), vehicle: carboxymethylcellulose (CMC)
# [5] = dose: 80.0 mg/kg/injection, schedule: Q01DX011 (ip), vehicle: carboxymethylcellulose (CMC)
# [6] = dose: 6.25 mg/kg/injection, schedule: Q01DX011 (ip), vehicle: methylcellulose (MC)
# [7] = dose: 12.5 mg/kg/injection, schedule: Q01DX011 (ip), vehicle: methylcellulose (MC)
# [8] = dose: 25.0 mg/kg/injection, schedule: Q01DX011 (ip), vehicle: methylcellulose (MC)
# [9] = dose: 50.0 mg/kg/injection, schedule: Q01DX011 (ip), vehicle: methylcellulose (MC)
# [10] = dose: 100.0 mg/kg/injection, schedule: Q01DX011 (sc), vehicle: steriod suspending solution
# [11] = dose: 28.0 mg/kg/injection, schedule: Q01DX011 (ip), vehicle: saline
structure (smiles),measurement,setting,value
Nc1nc(N)c(N=O)c(Nc2ccc(Cl)c(Cl)c2)n1,T/C,"dose: 1.75 mg/kg/injection, schedule: Q01DX011 (ip), vehicle: methylcellulose (MC)",90 % of control
same,T/C,"dose: 3.0 mg/kg/injection, schedule: Q01DX011 (ip), vehicle: carboxymethylcellulose (CMC)",76 % of control
same,T/C,[1],77 % of control
same,T/C,"dose: 4.0 mg/kg/injection, schedule: Q01DX011 (ip), vehicle: methylcellulose (MC)",61 % of control
same,T/C,"dose: 6.0 mg/kg/injection, schedule: Q01DX011 (ip), vehicle: methylcellulose (MC)",50 % of control
same,T/C,[2],57 % of control
same,T/C,[3],48 % of control
same,T/C,[4],45 % of control and 50 % of control
same,T/C,"dose: 14.0 mg/kg/injection, schedule: Q01DX011 (ip), vehicle: methylcellulose (MC)",25 % of control and 44 % of control
same,T/C,"dose: 28.0 mg/kg/injection, schedule: Q01DX011 (ip), vehicle: methylcellulose (MC)",21 % of control
same,T/C,"dose: 57.0 mg/kg/injection, schedule: Q01DX011 (ip), vehicle: carboxymethylcellulose (CMC)",66 % of control
same,T/C,"dose: 57.0 mg/kg/injection, schedule: Q01DX011 (ip), vehicle: methylcellulose (MC)",18 % of control
same,T/C,"dose: 114.0 mg/kg/injection, schedule: Q01DX011 (ip), vehicle: carboxymethylcellulose (CMC)",63 % of control
same,T/C,"dose: 228.0 mg/kg/injection, schedule: Q01DX011 (ip), vehicle: carboxymethylcellulose (CMC)",8 % of control
CCCCN(C)/N=N/c1nc[nH]c1C(N)=O,T/C,[5],4 % of control
Oc1ccc2ccccc2c1N=Nc1ccccc1,T/C,"dose: 50.0 mg/kg/injection, schedule: Q01DX011 (ip), vehicle: saline",69 % of control
same,T/C,"dose: 100.0 mg/kg/injection, schedule: Q01DX011 (ip), vehicle: saline",55 % of control
same,T/C,"dose: 200.0 mg/kg/injection, schedule: Q01DX011 (ip), vehicle: saline",50 % of control
CCCSc1nc(N)nc2c1ncn2CC(C)C,T/C,[6],31 % of control
same,T/C,[7],25 % of control
same,T/C,[8],4 % of control
same,T/C,[9],1 % of control
O=S1(=O)CCCO1,T/C,[5],32 % of control and 33 % of control
C[C@]12CCC(=O)C=C1CC[C@@H]1[C@@H]2[C@@H](O)C[C@@]2(C)[C@H]1CC[C@]2(O)C(=O)COC(=O)COCC(=O)O,T/C,"dose: 50.0 mg/kg/injection, schedule: Q01DX011 (ip), vehicle: steriod suspending solution",53 % of control
same,T/C,"dose: 50.0 mg/kg/injection, schedule: Q01DX011 (sc), vehicle: steriod suspending solution",54 % of control
same,T/C,"dose: 100.0 mg/kg/injection, schedule: Q01DX011 (ip), vehicle: steriod suspending solution",22 % of control
same,T/C,[10],62 % of control
same,T/C,"dose: 200.0 mg/kg/injection, schedule: Q01DX011 (ip), vehicle: steriod suspending solution",12 % of control
same,T/C,"dose: 200.0 mg/kg/injection, schedule: Q01DX011 (sc), vehicle: steriod suspending solution",56 % of control
same,T/C,"dose: 400.0 mg/kg/injection, schedule: Q01DX011 (sc), vehicle: steriod suspending solution",31 % of control
CC(=O)OCC(=O)C1(O)C(C)CC2C3C=C(C)C4=Cc5c(cnn5-c5ccccc5)CC4(C)C3C(O)CC21C (stereo unspecified),T/C,"dose: 0.01 mg/kg/injection, schedule: Q01DX011 (sc), vehicle: steriod suspending solution",74 % of control
same,T/C,"dose: 0.02 mg/kg/injection, schedule: Q01DX011 (sc), vehicle: steriod suspending solution",59 % of control
same,T/C,"dose: 0.05 mg/kg/injection, schedule: Q01DX011 (sc), vehicle: steriod suspending solution",46 % of control and 48 % of control
same,T/C,"dose: 0.1 mg/kg/injection, schedule: Q01DX011 (sc), vehicle: steriod suspending solution",19 % of control and 23 % of control
same,T/C,"dose: 0.2 mg/kg/injection, schedule: Q01DX011 (sc), vehicle: steriod suspending solution",9 % of control and 13 % of control
same,T/C,"dose: 1.0 mg/kg/injection, schedule: Q01DX011 (sc), vehicle: steriod suspending solution",14 % of control
same,T/C,"dose: 5.0 micrograms/kg/injection, schedule: Q01DX011 (sc), vehicle: steriod suspending solution",54 % of control
same,T/C,"dose: 10.0 micrograms/kg/injection, schedule: Q01DX011 (sc), vehicle: steriod suspending solution",106 % of control
same,T/C,"dose: 25.0 micrograms/kg/injection, schedule: Q01DX011 (sc), vehicle: steriod suspending solution",46 % of control
CC(C)Cn1cnc2c(SC(C)C)nc(N)nc21,T/C,[6],56 % of control
same,T/C,[7],19 % of control
same,T/C,[8],4 % of control
same,T/C,[9],1 % of control
CCCCS(=O)(=O)OCCCCOS(=O)(=O)CCCC,T/C,"dose: 45.0 mg/kg/injection, schedule: Q01DX011 (ip), vehicle: carboxymethylcellulose (CMC)",108 % of control
same,T/C,"dose: 90.0 mg/kg/injection, schedule: Q01DX011 (ip), vehicle: carboxymethylcellulose (CMC)",51 % of control
same,T/C,"dose: 180.0 mg/kg/injection, schedule: Q01DX011 (ip), vehicle: carboxymethylcellulose (CMC)",41 % of control
same,T/C,"dose: 360.0 mg/kg/injection, schedule: Q01DX011 (ip), vehicle: carboxymethylcellulose (CMC)",16 % of control
O=C1CCC(N2C(=O)c3ccccc3C2=O)C(=O)N1 (stereo unspecified),T/C,"dose: 250.0 mg/kg/injection, schedule: Q01DX011 (ip), vehicle: carboxymethylcellulose (CMC)",48 % of control
same,T/C,"dose: 375.0 mg/kg/injection, schedule: Q01DX011 (ip), vehicle: carboxymethylcellulose (CMC)",56 % of control
O=[N+]([O-])c1ccc(C=Nc2ccc3c(c2)C(Br)c2ccccc2-3)cc1 (stereo unspecified),T/C,[11],113 % of control
same,T/C,"dose: 55.0 mg/kg/injection, schedule: Q01DX011 (ip), vehicle: saline",96 % of control
same,T/C,"dose: 110.0 mg/kg/injection, schedule: Q01DX011 (ip), vehicle: saline",73 % of control
same,T/C,"dose: 220.0 mg/kg/injection, schedule: Q01DX011 (ip), vehicle: saline",40 % of control and 44 % of control
same,T/C,"dose: 440.0 mg/kg/injection, schedule: Q01DX011 (ip), vehicle: saline",39 % of control
C[C@]12CC[C@H](O)CC1=CC[C@@H]1[C@@H]2[C@@H](O)C[C@@]2(C)[C@H]1CC[C@]2(C)O,T/C,[10],96 % of control
same,T/C,"dose: 300.0 mg/kg/injection, schedule: Q01DX011 (sc), vehicle: steriod suspending solution",93 % of control
Cn1c(N)cc(=O)[nH]c1=S,T/C,[1],98 % of control
same,T/C,[3],40 % of control
same,T/C,"dose: 15.0 mg/kg/injection, schedule: Q01DX011 (ip), vehicle: methylcellulose (MC)",65 % of control
same,T/C,"dose: 30.0 mg/kg/injection, schedule: Q01DX011 (ip), vehicle: methylcellulose (MC)",79 % of control
same,T/C,"dose: 60.0 mg/kg/injection, schedule: Q01DX011 (ip), vehicle: methylcellulose (MC)",29 % of control
CC(C)OC(=O)C1(N)CCCC1,T/C,"dose: 3.5 mg/kg/injection, schedule: Q01DX011 (ip), vehicle: carboxymethylcellulose (CMC)",43 % of control
same,T/C,[2],55 % of control
same,T/C,"dose: 7.0 mg/kg/injection, schedule: Q01DX011 (ip), vehicle: saline",95 % of control
same,T/C,[4],55 % of control
same,T/C,"dose: 14.0 mg/kg/injection, schedule: Q01DX011 (ip), vehicle: saline",96 % of control
same,T/C,[11],34 % of control and 58 % of control
same,T/C,"dose: 56.0 mg/kg/injection, schedule: Q01DX011 (ip), vehicle: carboxymethylcellulose (CMC)",42 % of control
same,T/C,"dose: 113.0 mg/kg/injection, schedule: Q01DX011 (ip), vehicle: saline",6 % of control
same,T/C,"dose: 120.0 mg/kg/injection, schedule: Q01DX011 (ip), vehicle: other",10 % of control
CC(=O)c1cccc(NC2C(N)C(NC(=O)N(C)C)(C(C)O)C(C)(O)C2(O)COC(=O)c2c(C)cccc2O)c1 (stereo unspecified),T/C,"dose: 0.25 mg/kg/injection, schedule: Q01DX011 (ip), vehicle: saline",36 % of control
same,T/C,"dose: 0.5 mg/kg/injection, schedule: Q01DX011 (ip), vehicle: saline",83 % of control
same,T/C,"dose: 1.0 mg/kg/injection, schedule: Q01DX011 (ip), vehicle: saline",67 % of control
same,T/C,"dose: 2.0 mg/kg/injection, schedule: Q01DX011 (ip), vehicle: saline",24 % of control
CC(=O)OCC1OC(n2cnc3c(=S)nc(N)[nH]c32)C(OC(C)=O)C1OC(C)=O (stereo unspecified),T/C,"dose: 0.1 mg/kg/injection, schedule: Q01DX011 (ip), vehicle: carboxymethylcellulose (CMC)",86 % of control
same,T/C,"dose: 0.2 mg/kg/injection, schedule: Q01DX011 (ip), vehicle: carboxymethylcellulose (CMC)",77 % of control
same,T/C,"dose: 0.5 mg/kg/injection, schedule: Q01DX011 (ip), vehicle: carboxymethylcellulose (CMC)",69 % of control
same,T/C,"dose: 1.0 mg/kg/injection, schedule: Q01DX011 (ip), vehicle: carboxymethylcellulose (CMC)",11 % of control and 35 % of control
same,T/C,"dose: 1.5 mg/kg/injection, schedule: Q01DX011 (ip), vehicle: other",26 % of control
same,T/C,"dose: 3.0 mg/kg/injection, schedule: Q01DX011 (ip), vehicle: other",3 % of control
N#Cc1cn(C2OC(CO)C(O)C2O)c2ncnc(N)c12 (stereo unspecified),T/C,"dose: 0.15 mg/kg/injection, schedule: Q01DX011 (ip), vehicle: carboxymethylcellulose (CMC)",72 % of control
